In PubChem BioAssay AID256 (DTP/NCI, 2004):
Where “and” joins values, the source holds several entries; their conditions need not be identical. Identical values can stand only once. Toxic doses and inconclusive results are not listed.

Test system: CD2F1 mice, L1210 leukemia ip, survival T/C
Assay: NCI In Vivo Anticancer Drug Screen. Data for tumor model L1210 Leukemia (intraperitoneal) in CD2F1 (CDF1) mice
Settings: higher = longer survival
How it was run: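 Activity against a transplanted murine tumor was judged by comparing the compound group with a vehicle group. The outcome in the treated animals was divided by that in the controls.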

[1] = endpoint: mean survival time, dose: 100.0 mg/kg/injection, schedule: Q01DX001 (ip), vehicle: Klucel (hydroxypropylcellulose) (HPC)
[2] = endpoint: mean survival time, dose: 200.0 mg/kg/injection, schedule: Q01DX001 (ip), vehicle: Klucel (hydroxypropylcellulose) (HPC)
[3] = endpoint: mean survival time, dose: 100.0 mg/kg/injection, schedule: Q04DX003 (ip), vehicle: saline with Tween-80
[4] = endpoint: mean survival time, dose: 200.0 mg/kg/injection, schedule: Q04DX003 (ip), vehicle: saline with Tween-80
[5] = endpoint: mean survival time, dose: 400.0 mg/kg/injection, schedule: Q04DX003 (ip), vehicle: saline with Tween-80
[6] = endpoint: mean survival time, dose: 25.0 mg/kg/injection, schedule: Q01DX009 (ip), vehicle: saline
[7] = endpoint: mean survival time, dose: 50.0 mg/kg/injection, schedule: Q01DX009 (ip), vehicle: saline
[8] = endpoint: mean survival time, dose: 100.0 mg/kg/injection, schedule: Q01DX001 (ip), vehicle: saline with Tween-80
[9] = endpoint: mean survival time, dose: 200.0 mg/kg/injection, schedule: Q01DX001 (ip), vehicle: saline with Tween-80
[10] = endpoint: median survival time, dose: 50.0 mg/kg/injection, schedule: Q04DX002 (ip), vehicle: saline with Tween-80
[11] = endpoint: median survival time, dose: 100.0 mg/kg/injection, schedule: Q04DX002 (ip), vehicle: saline with Tween-80
[12] = endpoint: median survival time, dose: 200.0 mg/kg/injection, schedule: Q04DX002 (ip), vehicle: saline with Tween-80
[13] = endpoint: median survival time, dose: 400.0 mg/kg/injection, schedule: Q04DX002 (ip), vehicle: saline with Tween-80
[14] = endpoint: mean survival time, dose: 100.0 mg/kg/injection, schedule: Q01DX001 (ip), vehicle: saline
[15] = endpoint: mean survival time, dose: 50.0 mg/kg/injection, schedule: Q01DX009 (ip), vehicle: Klucel (hydroxypropylcellulose) (HPC)
[16] = endpoint: mean survival time, dose: 400.0 mg/kg/injection, schedule: Q01DX001 (ip), vehicle: saline with Tween-80
[17] = endpoint: mean survival time, dose: 50.0 mg/kg/injection, schedule: Q01DX009 (ip), vehicle: saline with Tween-80
[18] = endpoint: mean survival time, dose: 100.0 mg/kg/injection, schedule: Q01DX009 (ip), vehicle: saline with Tween-80
[19] = endpoint: mean survival time, dose: 200.0 mg/kg/injection, schedule: Q01DX009 (ip), vehicle: saline with Tween-80
[20] = endpoint: median survival time, dose: 6.25 mg/kg/injection, schedule: Q04DX002 (ip), vehicle: water
[21] = endpoint: median survival time, dose: 12.5 mg/kg/injection, schedule: Q04DX002 (ip), vehicle: water
[22] = endpoint: median survival time, dose: 25.0 mg/kg/injection, schedule: Q04DX002 (ip), vehicle: water
[23] = endpoint: median survival time, dose: 100.0 mg/kg/injection, schedule: Q04DX002 (ip), vehicle: water

O=Cc1cc(Br)c(O)c(Br)c1 was tested, and the T/C (endpoint: mean survival time, dose: 50.0 mg/kg/injection, schedule: Q01DX001 (ip), vehicle: Klucel (hydroxypropylcellulose) (HPC)) was 97 % of control, the T/C [1] was 93 % of control and the T/C [2] was 97 % of control.
O=C1c2ccccc2-c2ccc(-c3ccc4c5c(cccc35)C(=O)c3ccccc3-4)c3cccc1c23 was tested, and the T/C [3] was 97 % of control, the T/C [4] was 97 % of control and the T/C [5] was 86 % of control.
For O=[N+]([O-])c1ccc(OP2(Oc3ccc([N+](=O)[O-])cc3)=NP(Oc3ccc([N+](=O)[O-])cc3)(Oc3ccc([N+](=O)[O-])cc3)=NP(Oc3ccc([N+](=O)[O-])cc3)(Oc3ccc([N+](=O)[O-])cc3)=NP(Oc3ccc([N+](=O)[O-])cc3)(Oc3ccc([N+](=O)[O-])cc3)=N2)cc1, the T/C [6] was 100 % of control, the T/C [7] was 100 % of control and the T/C (endpoint: mean survival time, dose: 100.0 mg/kg/injection, schedule: Q01DX009 (ip), vehicle: saline) was 100 % of control. For the same compound, the T/C (endpoint: mean survival time, dose: 100.0 mg/kg/injection, schedule: Q04DX003 (ip), vehicle: saline) was 102 % of control, the T/C (endpoint: mean survival time, dose: 200.0 mg/kg/injection, schedule: Q04DX003 (ip), vehicle: saline) was 100 % of control and the T/C (endpoint: mean survival time, dose: 400.0 mg/kg/injection, schedule: Q04DX003 (ip), vehicle: saline) was 96 % of control.
CC(CC(=O)O)[Se][Se]C(C)CC(=O)O (stereo unspecified) was tested, and the T/C [8] was 95 % of control and the T/C [9] was 103 % of control.
OC1CCC2=C(C1)C1CCC2C1 (stereo unspecified) was tested, and the T/C (endpoint: mean survival time, dose: 12.5 mg/kg/injection, schedule: Q01DX009 (ip), vehicle: saline) was 98 % of control, the T/C [6] was 103 % of control and the T/C [7] was 97 % of control.
With Cc1cccc(N=NN(C)C)c1 the T/C (endpoint: mean survival time, dose: 19.0 mg/kg/injection, schedule: Q01DX009 (ip), vehicle: Klucel (hydroxypropylcellulose) (HPC)) was 113 % of control, the T/C (endpoint: mean survival time, dose: 29.0 mg/kg/injection, schedule: Q01DX009 (ip), vehicle: Klucel (hydroxypropylcellulose) (HPC)) was 119 % of control and the T/C (endpoint: mean survival time, dose: 44.0 mg/kg/injection, schedule: Q01DX009 (ip), vehicle: Klucel (hydroxypropylcellulose) (HPC)) was 123 % of control. For the same compound, the T/C (endpoint: mean survival time, dose: 66.0 mg/kg/injection, schedule: Q01DX009 (ip), vehicle: Klucel (hydroxypropylcellulose) (HPC)) was 114 % of control and the T/C (endpoint: mean survival time, dose: 75.0 mg/kg/injection, schedule: Q01DX001 (ip), vehicle: saline) was 120 % of control.
In the case of O=C(c1ccccc1)C(Sc1ccccc1)Sc1ccccc1, the T/C [10] is reported as 100 % of control, the T/C [11] is reported as 100 % of control and the T/C [12] is reported as 100 % of control. The T/C [13] was 110 % of control.
With CCCC(C)N (stereo unspecified) the T/C [14] was 98 % of control, the T/C (endpoint: mean survival time, dose: 200.0 mg/kg/injection, schedule: Q01DX001 (ip), vehicle: saline) was 98 % of control and the T/C (endpoint: mean survival time, dose: 400.0 mg/kg/injection, schedule: Q01DX001 (ip), vehicle: saline) was 94 % of control.
In the case of C/C=C1\OC(n2cnc3c(N)ncnc32)C(O)C1O (stereo unspecified), the T/C (endpoint: mean survival time, dose: 12.5 mg/kg/injection, schedule: Q01DX005 (ip), vehicle: distilled water + Tween-80) is reported as 101 % of control, the T/C (endpoint: mean survival time, dose: 25.0 mg/kg/injection, schedule: Q01DX005 (ip), vehicle: distilled water + Tween-80) is reported as 109 % of control and the T/C (endpoint: mean survival time, dose: 50.0 mg/kg/injection, schedule: Q01DX005 (ip), vehicle: distilled water + Tween-80) is reported as 113 % of control. For the same compound, the T/C (endpoint: mean survival time, dose: 50.0 mg/kg/injection, schedule: Q01DX009 (ip), vehicle: distilled water + Tween-80) was 112 % of control, the T/C (endpoint: mean survival time, dose: 100.0 mg/kg/injection, schedule: Q01DX005 (ip), vehicle: distilled water + Tween-80) was 119 % of control and the T/C (endpoint: mean survival time, dose: 100.0 mg/kg/injection, schedule: Q01DX009 (ip), vehicle: distilled water + Tween-80) was 124 % of control. The T/C (endpoint: mean survival time, dose: 200.0 mg/kg/injection, schedule: Q01DX009 (ip), vehicle: distilled water + Tween-80) was 157 % of control.
In the case of COc1nc(N)nc2c1nnn2C1OC(CO)C(O)C1O (stereo unspecified), the T/C [15] is reported as 117 % of control.
In the case of CC1(C)OC(C(O)COC(=O)c2ccccc2)C(C(O)COC(=O)c2ccccc2)O1 (stereo unspecified), the T/C [15] is reported as 98 % of control, the T/C (endpoint: mean survival time, dose: 100.0 mg/kg/injection, schedule: Q01DX009 (ip), vehicle: Klucel (hydroxypropylcellulose) (HPC)) is reported as 98 % of control and the T/C (endpoint: mean survival time, dose: 200.0 mg/kg/injection, schedule: Q01DX009 (ip), vehicle: Klucel (hydroxypropylcellulose) (HPC)) is reported as 102 % of control.
CC1CCCCC1NC(=O)c1ccccc1 (stereo unspecified) was tested, and the T/C [8] was 100 % of control, the T/C [9] was 98 % of control and the T/C [16] was 87 % of control.
For CC(C)(C=O)CNC(C)(C)C, the T/C [3] was 105 % of control and the T/C [4] was 96 % of control.
CCCCCC(O)CCCC (stereo unspecified) was tested, and the T/C [17] was 91 % of control, the T/C [18] was 100 % of control and the T/C [19] was 106 % of control.
In the case of O=C(O)/C=C/C(=O)Nc1ccccc1Cl, the T/C [18] is reported as 96 % of control, the T/C [3] is reported as 94 % of control and the T/C [19] is reported as 96 % of control. The T/C [4] was 105 % of control and the T/C [5] was 101 % of control.
With CCCCSC(=N)N the T/C (endpoint: mean survival time, dose: 25.0 mg/kg/injection, schedule: Q01DX001 (ip), vehicle: saline) was 100 % of control, the T/C (endpoint: mean survival time, dose: 50.0 mg/kg/injection, schedule: Q01DX001 (ip), vehicle: saline) was 105 % of control and the T/C [14] was 113 % of control.
In the case of O=C1CN=C(c2ccccc2)O1, the T/C [10] is reported as 100 % of control, the T/C [11] is reported as 100 % of control and the T/C [12] is reported as 111 % of control. The T/C [13] was 100 % of control.
In the case of CSc1nc(N)nc2n[nH]nc12, the T/C [1] is reported as 97 % of control, the T/C [2] is reported as 105 % of control and the T/C (endpoint: mean survival time, dose: 400.0 mg/kg/injection, schedule: Q01DX001 (ip), vehicle: Klucel (hydroxypropylcellulose) (HPC)) is reported as 103 % of control.
With N=c1c2cnn(C3OC(CO)C(O)C3O)c2ncn1N (stereo unspecified) the T/C (endpoint: mean survival time, dose: 6.25 mg/kg/injection, schedule: Q01DX009 (ip), vehicle: water) was 103 % of control, the T/C (endpoint: mean survival time, dose: 12.5 mg/kg/injection, schedule: Q01DX009 (ip), vehicle: water) was 115 % of control and 112 % of control and the T/C (endpoint: mean survival time, dose: 50.0 mg/kg/injection, schedule: Q01DX009 (ip), vehicle: water) was 91 % of control.
In the case of C[n+]1cccc(NC(=O)COc2ccc(Cl)c(Cl)c2)c1, the T/C (endpoint: mean survival time, dose: 25.0 mg/kg/injection, schedule: Q04DX003 (ip), vehicle: saline with Tween-80) is reported as 106 % of control, the T/C (endpoint: mean survival time, dose: 50.0 mg/kg/injection, schedule: Q04DX003 (ip), vehicle: saline with Tween-80) is reported as 104 % of control and the T/C [3] is reported as 97 % of control and 104 % of control.
With CCC1(OC(=O)CN2CCN(CCCO)CC2)C(=O)OCc2c1cc1n(c2=O)Cc2cc3ccccc3nc2-1 (stereo unspecified) the T/C [20] was 106 % of control, the T/C [21] was 107 % of control and 108 % of control and the T/C [22] was 121 % of control and 111 % of control. For the same compound, the T/C (endpoint: median survival time, dose: 50.0 mg/kg/injection, schedule: Q04DX002 (ip), vehicle: water) was 120 % of control and the T/C [23] was 170 % of control.
CC1c2ccc3ccccc3c2C(=O)c2cccc(Cl)c21 (stereo unspecified) was tested, and the T/C [10] was 100 % of control, the T/C [11] was 100 % of control and the T/C [12] was 111 % of control. For the same compound, the T/C [13] was 88 % of control.
CCC1(OC(=O)CN2CCN(CCO)CC2)C(=O)OCc2c1cc1n(c2=O)Cc2cc3ccccc3nc2-1 (stereo unspecified) was tested, and the T/C [20] was 105 % of control and 108 % of control, the T/C [21] was 108 % of control and 112 % of control and the T/C [22] was 122 % of control and 110 % of control. The T/C [23] was 177 % of control.
With COc1ccccc1NC(=O)Oc1ccc(C2CCCCC2)cc1 the T/C (endpoint: mean survival time, dose: 25.0 mg/kg/injection, schedule: Q01DX009 (ip), vehicle: saline with Tween-80) was 108 % of control, the T/C (endpoint: mean survival time, dose: 25.0 mg/kg/injection, schedule: Q04DX002 (ip), vehicle: saline with Tween-80) was 100 % of control and the T/C [17] was 97 % of control. The T/C (endpoint: mean survival time, dose: 50.0 mg/kg/injection, schedule: Q04DX002 (ip), vehicle: saline with Tween-80) was 100 % of control, the T/C [18] was 104 % of control and the T/C (endpoint: mean survival time, dose: 100.0 mg/kg/injection, schedule: Q04DX002 (ip), vehicle: saline with Tween-80) was 92 % of control and 98 % of control.
In the case of CCOc1cccc(Cc2cn(Cc3cccc(NC(=O)Nc4cccc(S(=O)(=O)F)c4)c3)c(=O)[nH]c2=O)c1, the T/C [8] is reported as 95 % of control, the T/C [9] is reported as 95 % of control and the T/C [16] is reported as 94 % of control.
